The structures appear in SMILES notation.

The results in this text go back to the supplement of paper PMC11061612.

Assay [1] has as its system BICR78 (Oral Cavity Carcinoma). In words: Bliss excess, mean over the matrix (fraction); higher = more synergy. The gist of the method: (§1)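 Cell lines grown in DMEM/F12 or RPMI with 10% FBS were plated in 1536-well plates and held 24 hours at 37°C, 5% CO2 before 72 hours of exposure to two-drug dose matrices, with DMSO typically at 0.2%. CellTiter-Glo 2.0 luminescence gave viability, which was converted to inhibition. Vehicle wells were set to 0 and blank wells to 1. Combination Emax is the second-highest inhibition in the matrix, and Bliss excess is the observed combination effect minus the expected EA + EB − EA·EB, where EA and EB are the single-agent effects.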

Assay [2] deals with CAL-39 (Other Solid Carcinomas). The assay is described as above. The gist of the method:
as §1

In assay [3] the test system is HCC1143 (Breast Carcinoma). Described as above. The gist of the method: as §1
In assay [4] the test system is HLE (Hepatocellular Carcinoma). The assay is described as above. In outline: as §1
The next assay has as its system HuO9 (Osteosarcoma). The assay is described as above. In outline: as §1
Assay [5] has as its system KG-1 (Acute Myeloid Leukemia). The assay is described as above. The gist of the method:
as §1

The subject of another assay is MSTO-211H (Mesothelioma). Described as above. In outline: as §1
For assay [6], the system named is P31-FUJ (Acute Myeloid Leukemia). Described as above. In outline:
as §1

Assay [7] concerns SKN-3 (Head and Neck Carcinoma). Described as above. In outline: as §1
Assay [8] concerns SNG-M (Endometrial Carcinoma). Described as above. In outline:
as §1

The test system of assay [9] is SNU-61 (Colorectal Carcinoma). The assay is described as above. In outline: as §1
In assay [10] the test system is SW48 (Colorectal Carcinoma). The assay is described as above. In outline:
as §1

Assay [11] relates to TYK-nu (Ovarian Carcinoma). The description is as above. In outline: as §1
The test system of assay [12] is WSU-DLCL2 (B-Cell Non-Hodgkin's Lymphoma). The assay is described as above. In outline: as §1
Assay [13] concerns 647-V (Bladder Carcinoma). In words: combination Emax (second highest fraction inhibited in the dose matrix, 72 h); higher = more inhibition; extreme values may be limits of the assay. In outline:
as §1

Assay [14] concerns EFM-192A (Breast Carcinoma). Described as above. The gist of the method: as §1
For assay [15], the system named is HCC1143 (Breast Carcinoma). Described as above. In outline: as §1
The subject of assay [16] is PA-TU-8902 (Pancreatic Carcinoma). Described as above. The gist of the method:
as §1

In assay [17] the test system is SK-LMS-1 (Other Solid Carcinomas). The assay is described as above. The gist of the method: as §1
Assay [18] relates to YT (Other Blood Carcinomas). Described as above. In outline: as §1
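Throughout, for Bliss excess, mean over the matrix: after 72 h of two-drug dosing.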

As for `CC1(C)CCC(CN2CCN(c3ccc(C(=O)NS(=O)(=O)c4ccc(NCC5CCOCC5)c([N+](=O)[O-])c4)c(Oc4cnc5[nH]ccc5c4)c3)CC2)=C(c2ccc(Cl)cc2)C1` [Venetoclax] + C[C@@H]1COCCN1C2=NC(=NC(=C2)C3(CC3)[S@](=N)(=O)C)C4=C5C=CNC5=NC=C4 [AZD6738] (first compound max 1 µM, 7x7, partner max 10 µM), the Bliss excess in [1] is -0.0397; in [2], -0.026; in [3] it was -0.0573; in assay [4], -0.063; in the assay with HuO9 (Osteosarcoma), 0.0275; in assay [5], 0.075. In addition, the Bliss excess is -0.0344 in the assay on MSTO-211H (Mesothelioma); 0.0498 in assay [6]; -0.043 in [7]; -0.0296 in assay [8]; 0.0295 in assay [9]; -0.0398 in assay [10]. In addition, the Bliss excess in assay [11] was -0.0315; in [12] it was 0.0423. Besides, the “combination Emax” value in assay [13] was 0.698; in assay [14], 0.299; in assay [15], 0.821; in assay [16], 0.344; in assay [17] it was 0.548; in assay [18], 0.852.
Consider `CC1(C)CCC(CN2CCN(c3ccc(C(=O)NS(=O)(=O)c4ccc(NCC5CCOCC5)c([N+](=O)[O-])c4)c(Oc4cnc5[nH]ccc5c4)c3)CC2)=C(c2ccc(Cl)cc2)C1` [Venetoclax] + C[C@@H](Nc1cc(F)cc(F)c1)c1cc(C(=O)N(C)C)cc2c(=O)cc(N3CCOCC3)oc12 [AZD8186] (first compound max 1 µM, 7x7, partner max 3 µM), for which the Bliss excess in assay [1] was -0.0423; in assay [2], -0.106; in assay [3] it was -0.0141; in [4], -0.0364; in the assay on HuO9 (Osteosarcoma) it was 0.0776; in [5], 0.114. In addition, the Bliss excess in the assay with MSTO-211H (Mesothelioma) is -0.0052; in assay [6] it was 0.0178; in assay [7], -0.0192; in [8], -0.0551; in assay [9], -0.0314; in assay [10] it was -0.0278. Besides, the results for the Bliss excess in assay [11] and in assay [12] were -0.0103 and 0.0951, respectively. Moreover, the “combination Emax” value in assay [13] turned out to be 0.17; in assay [14] it was 0.178; in [15] it was 0.246; in assay [16], 0.115; in [17] it was 0.412; in assay [18], 0.631.
As for `CC1(C)CCC(CN2CCN(c3ccc(C(=O)NS(=O)(=O)c4ccc(NCC5CCOCC5)c([N+](=O)[O-])c4)c(Oc4cnc5[nH]ccc5c4)c3)CC2)=C(c2ccc(Cl)cc2)C1` [Venetoclax] + Cc1cc2ncnn2cc1Nc1ncc2c(n1)n(C1CCOCC1)c(=O)n2C [AZD7648] (first compound max 1 µM, 7x7, partner max 10 µM), the Bliss excess is -0.0493 in assay [1]; -0.104 in [2]; 0.0481 in assay [3]; -0.024 in assay [4]; 0.0557 with HuO9 (Osteosarcoma); 0.0848 in [5]. The Bliss excess was -0.0564 with MSTO-211H (Mesothelioma); -0.015 in [6]; -0.0193 in [7]; -0.0516 in assay [8]; 0.0023 in [9]; 0.0327 in [10]. The Bliss excess in [11] was -0.0074; in assay [12], 0.0706. In addition, the “combination Emax” value in assay [13] was 0.209; in assay [14] it was 0.25; in [15] it was 0.253; in assay [16], 0.236; in assay [17] it was 0.307; in [18], 0.732.
Consider `CC1(C)CCC(CN2CCN(c3ccc(C(=O)NS(=O)(=O)c4ccc(NCC5CCOCC5)c([N+](=O)[O-])c4)c(Oc4cnc5[nH]ccc5c4)c3)CC2)=C(c2ccc(Cl)cc2)C1` [Venetoclax] + Cn1cnc2c(F)c(Nc3ccc(Br)cc3Cl)c(C(=O)NOCCO)cc21 [Selumetinib] (first compound max 1 µM, 7x7, partner max 3 µM), for which the Bliss excess was -0.0354 in [1]; 0.0138 in assay [2]; -0.0093 in [3]; -0.0267 in assay [4]; -0.0173 with HuO9 (Osteosarcoma); 0.0735 in assay [5]. The Bliss excess is -0.0393 with MSTO-211H (Mesothelioma); -0.0968 in [6]; 0.019 in [7]; -0.0282 in assay [8]; 0.0136 in assay [9]; 0.0113 in [10]. Also, the Bliss excess in [11] is -0.0594; in assay [12], 0.0196. The “combination Emax” value is 0.133 in assay [13]; 0.11 in assay [14]; 0.275 in assay [15]; 0.26 in assay [16]; 0.203 in assay [17]; 0.429 in assay [18].
